From the supplement of paper PMC12463676, “Small-molecule dissolution of stress granules by redox modulation benefits ALS models” (Nature Chemical Biology, 2025)

Experiments:
[1] = compound: NC(=O)CCCCC1CCSS1 [lipoamide]; experiment: thermal stability z-score vs DMSO; higher = more thermally stabilized by treatment; conditions: HeLa, lipoamide concentration 100 µM
Description: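 Cellular thermal proteome profiling in HeLa cells. Cells were treated with 100 µM lipoamide for 1 h, with or without 1 mM arsenate for a further 1 h, then heated to ten temperatures (37-66.3 °C), and soluble protein was quantified by TMT mass spectrometry relative to 0.1% DMSO controls. The thermal stability score (sum of log2 fold changes minus the abundance score) was transformed to a z-score; mean of n = 3 experiments.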

[2] = compound: O=[As]([O-])(O)O.[K+] [potassium arsenate]; experiment: as above; conditions: HeLa; arsenate concentration 1 mM
Description: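 Cellular thermal proteome profiling in HeLa cells treated with 1 mM arsenate for 1 h (DMSO pretreatment), heated to ten temperatures (37-66.3 °C). Soluble protein was quantified by TMT mass spectrometry relative to DMSO controls; the thermal stability score was transformed to a z-score; mean of n = 3 experiments.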

[3] = arsenate co-treatment: 1 mM arsenate 1 h
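Note: each temperature applied for 3 min, abundance score taken as mean log2 fold change at the two lowest temperatures, z-score obtained by mean subtraction and division by SD.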

Chain of UniProt Q9H0S4 (Q9H0S4 whole entry): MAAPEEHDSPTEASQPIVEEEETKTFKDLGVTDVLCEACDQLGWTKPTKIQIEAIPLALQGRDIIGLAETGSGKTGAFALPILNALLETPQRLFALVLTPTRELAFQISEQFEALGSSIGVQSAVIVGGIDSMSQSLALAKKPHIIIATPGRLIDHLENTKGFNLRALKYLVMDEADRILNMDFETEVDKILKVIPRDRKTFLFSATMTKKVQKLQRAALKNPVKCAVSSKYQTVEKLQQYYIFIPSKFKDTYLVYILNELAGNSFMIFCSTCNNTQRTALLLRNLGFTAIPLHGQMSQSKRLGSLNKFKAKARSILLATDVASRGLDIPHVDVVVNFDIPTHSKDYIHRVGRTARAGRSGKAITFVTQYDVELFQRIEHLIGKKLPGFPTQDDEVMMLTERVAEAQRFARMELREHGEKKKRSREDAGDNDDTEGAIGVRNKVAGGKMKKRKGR
Chain of UniProt Q9NR30 (Q9NR30 whole entry): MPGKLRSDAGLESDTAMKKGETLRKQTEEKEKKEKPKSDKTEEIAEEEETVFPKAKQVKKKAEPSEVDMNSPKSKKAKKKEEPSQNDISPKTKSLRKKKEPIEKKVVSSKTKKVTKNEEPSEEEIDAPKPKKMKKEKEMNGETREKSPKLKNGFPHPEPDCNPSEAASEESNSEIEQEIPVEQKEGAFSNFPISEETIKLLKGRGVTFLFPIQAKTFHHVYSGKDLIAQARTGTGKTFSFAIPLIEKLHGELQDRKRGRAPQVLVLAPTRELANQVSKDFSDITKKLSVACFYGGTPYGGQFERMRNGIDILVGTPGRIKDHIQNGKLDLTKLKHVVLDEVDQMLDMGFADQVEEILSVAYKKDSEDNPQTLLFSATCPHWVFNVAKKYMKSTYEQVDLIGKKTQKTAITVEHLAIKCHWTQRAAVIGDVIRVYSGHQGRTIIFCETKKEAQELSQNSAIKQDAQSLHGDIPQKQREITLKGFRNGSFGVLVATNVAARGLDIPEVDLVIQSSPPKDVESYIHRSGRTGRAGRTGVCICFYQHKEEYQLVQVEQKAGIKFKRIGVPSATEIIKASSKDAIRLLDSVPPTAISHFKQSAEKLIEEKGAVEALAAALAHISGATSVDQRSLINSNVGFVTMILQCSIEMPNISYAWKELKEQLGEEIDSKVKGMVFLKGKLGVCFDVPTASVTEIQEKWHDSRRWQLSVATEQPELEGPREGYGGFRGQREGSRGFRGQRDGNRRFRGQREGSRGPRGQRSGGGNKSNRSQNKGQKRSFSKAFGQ
Chain of UniProt P00374 (P00374 whole entry): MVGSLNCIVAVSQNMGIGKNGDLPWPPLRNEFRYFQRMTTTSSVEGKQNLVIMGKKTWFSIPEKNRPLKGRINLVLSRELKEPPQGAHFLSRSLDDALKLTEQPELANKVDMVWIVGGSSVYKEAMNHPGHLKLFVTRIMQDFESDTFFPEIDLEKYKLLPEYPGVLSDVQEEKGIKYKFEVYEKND
Chain of UniProt Q13838 (Q13838 whole entry): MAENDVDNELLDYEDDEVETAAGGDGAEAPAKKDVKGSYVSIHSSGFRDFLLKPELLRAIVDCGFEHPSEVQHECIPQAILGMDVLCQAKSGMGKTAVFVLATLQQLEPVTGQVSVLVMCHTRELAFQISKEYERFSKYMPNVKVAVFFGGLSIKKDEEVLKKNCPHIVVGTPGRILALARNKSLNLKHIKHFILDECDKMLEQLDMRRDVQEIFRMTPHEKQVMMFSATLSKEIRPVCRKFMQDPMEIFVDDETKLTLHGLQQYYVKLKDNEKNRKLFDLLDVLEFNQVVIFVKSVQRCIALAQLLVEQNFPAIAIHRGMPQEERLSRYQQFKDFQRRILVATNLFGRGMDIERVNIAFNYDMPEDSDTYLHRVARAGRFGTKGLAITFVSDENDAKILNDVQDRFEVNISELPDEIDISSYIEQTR
Chain of UniProt Q9Y6V7 (Q9Y6V7 whole entry): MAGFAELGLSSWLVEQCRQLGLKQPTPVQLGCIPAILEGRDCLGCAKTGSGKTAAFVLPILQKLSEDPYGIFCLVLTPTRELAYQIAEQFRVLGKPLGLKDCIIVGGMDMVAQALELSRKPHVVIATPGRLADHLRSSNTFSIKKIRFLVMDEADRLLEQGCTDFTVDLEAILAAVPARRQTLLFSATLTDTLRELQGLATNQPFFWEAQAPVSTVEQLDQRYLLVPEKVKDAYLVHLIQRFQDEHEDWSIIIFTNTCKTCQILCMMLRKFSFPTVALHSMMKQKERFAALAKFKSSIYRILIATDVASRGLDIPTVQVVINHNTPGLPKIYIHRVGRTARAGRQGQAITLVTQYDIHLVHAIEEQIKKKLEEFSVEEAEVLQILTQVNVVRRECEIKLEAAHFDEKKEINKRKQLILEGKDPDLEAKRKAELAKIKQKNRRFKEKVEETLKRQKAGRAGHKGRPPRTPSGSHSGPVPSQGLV
Chain of UniProt O75911 (O75911 whole entry): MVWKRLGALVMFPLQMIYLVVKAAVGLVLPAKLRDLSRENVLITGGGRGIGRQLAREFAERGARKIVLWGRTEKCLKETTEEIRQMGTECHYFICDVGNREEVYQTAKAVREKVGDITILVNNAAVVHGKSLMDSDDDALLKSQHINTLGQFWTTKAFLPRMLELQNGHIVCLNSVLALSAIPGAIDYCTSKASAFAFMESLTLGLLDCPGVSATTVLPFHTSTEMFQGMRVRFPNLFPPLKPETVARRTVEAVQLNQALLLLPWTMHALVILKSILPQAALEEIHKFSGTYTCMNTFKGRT
Chain of UniProt Q5VZ89 (Q5VZ89 whole entry): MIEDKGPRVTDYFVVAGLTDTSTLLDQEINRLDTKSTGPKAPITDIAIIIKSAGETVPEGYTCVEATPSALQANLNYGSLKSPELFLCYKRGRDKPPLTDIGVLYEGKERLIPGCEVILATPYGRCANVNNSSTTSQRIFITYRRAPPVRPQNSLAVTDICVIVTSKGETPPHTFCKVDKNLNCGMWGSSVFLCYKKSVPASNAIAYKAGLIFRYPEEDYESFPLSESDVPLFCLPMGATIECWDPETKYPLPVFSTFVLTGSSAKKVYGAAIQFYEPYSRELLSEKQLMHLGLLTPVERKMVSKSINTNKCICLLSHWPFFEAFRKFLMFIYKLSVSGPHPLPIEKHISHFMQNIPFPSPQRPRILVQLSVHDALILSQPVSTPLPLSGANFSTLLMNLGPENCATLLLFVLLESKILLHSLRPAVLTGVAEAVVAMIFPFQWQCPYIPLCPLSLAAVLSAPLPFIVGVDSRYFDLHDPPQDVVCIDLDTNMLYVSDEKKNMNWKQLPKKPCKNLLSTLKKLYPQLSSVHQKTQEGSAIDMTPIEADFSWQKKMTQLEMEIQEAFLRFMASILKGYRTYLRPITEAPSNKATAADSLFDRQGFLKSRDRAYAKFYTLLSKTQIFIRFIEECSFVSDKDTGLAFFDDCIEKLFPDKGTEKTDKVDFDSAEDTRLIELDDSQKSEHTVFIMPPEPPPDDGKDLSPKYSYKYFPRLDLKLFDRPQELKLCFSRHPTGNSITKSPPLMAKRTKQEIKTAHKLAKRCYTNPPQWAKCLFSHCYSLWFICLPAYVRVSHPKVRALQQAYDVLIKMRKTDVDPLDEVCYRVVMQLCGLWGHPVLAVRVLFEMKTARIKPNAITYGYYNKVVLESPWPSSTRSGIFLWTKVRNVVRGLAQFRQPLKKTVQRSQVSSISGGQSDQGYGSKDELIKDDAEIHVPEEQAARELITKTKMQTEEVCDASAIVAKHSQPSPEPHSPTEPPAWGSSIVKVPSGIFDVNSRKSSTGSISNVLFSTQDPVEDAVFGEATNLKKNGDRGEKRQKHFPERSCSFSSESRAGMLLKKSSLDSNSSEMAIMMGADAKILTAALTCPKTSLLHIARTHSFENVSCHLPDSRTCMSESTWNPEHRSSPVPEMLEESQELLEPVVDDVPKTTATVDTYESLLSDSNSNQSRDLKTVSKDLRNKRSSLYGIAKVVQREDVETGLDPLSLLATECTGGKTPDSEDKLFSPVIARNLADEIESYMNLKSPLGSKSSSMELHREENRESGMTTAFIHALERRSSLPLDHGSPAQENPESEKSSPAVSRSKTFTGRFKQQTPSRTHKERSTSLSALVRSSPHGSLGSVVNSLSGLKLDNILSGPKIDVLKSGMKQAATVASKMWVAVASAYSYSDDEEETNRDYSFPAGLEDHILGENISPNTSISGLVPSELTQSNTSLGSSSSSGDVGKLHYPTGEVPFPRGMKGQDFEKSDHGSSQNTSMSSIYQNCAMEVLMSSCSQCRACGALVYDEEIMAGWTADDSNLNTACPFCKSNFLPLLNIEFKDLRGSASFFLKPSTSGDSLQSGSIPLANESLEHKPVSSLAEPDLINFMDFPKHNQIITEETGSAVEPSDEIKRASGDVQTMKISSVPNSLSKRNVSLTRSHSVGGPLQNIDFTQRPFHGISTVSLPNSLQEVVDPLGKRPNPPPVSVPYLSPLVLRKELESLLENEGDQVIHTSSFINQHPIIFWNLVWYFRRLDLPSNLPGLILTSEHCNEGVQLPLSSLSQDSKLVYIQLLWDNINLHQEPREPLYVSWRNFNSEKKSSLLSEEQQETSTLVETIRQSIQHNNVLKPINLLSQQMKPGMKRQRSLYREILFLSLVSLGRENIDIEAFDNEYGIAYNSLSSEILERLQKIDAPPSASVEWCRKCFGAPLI
Chain of UniProt Q9NUI1 (Q9NUI1 whole entry): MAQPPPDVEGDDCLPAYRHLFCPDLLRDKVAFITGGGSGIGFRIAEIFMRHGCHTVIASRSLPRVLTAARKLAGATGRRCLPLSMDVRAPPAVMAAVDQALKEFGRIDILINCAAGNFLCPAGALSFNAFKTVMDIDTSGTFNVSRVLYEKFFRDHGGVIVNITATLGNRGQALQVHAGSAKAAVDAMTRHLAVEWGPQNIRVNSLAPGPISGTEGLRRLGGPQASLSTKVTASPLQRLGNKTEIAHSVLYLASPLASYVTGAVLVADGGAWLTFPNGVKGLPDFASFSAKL
Chain of UniProt P30046 (P30046 whole entry): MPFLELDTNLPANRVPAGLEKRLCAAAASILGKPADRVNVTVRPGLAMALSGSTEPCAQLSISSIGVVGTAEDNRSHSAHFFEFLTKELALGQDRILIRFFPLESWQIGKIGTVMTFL

Row | Target | thermal stability z-score [1, 3] | thermal stability z-score ([1]; arsenate co-treatment: none) | thermal stability z-score [2]
1 | DCUN1D5 (UniProt Q9BTE7) | -0.0389 | 0.215 | -0.507
2 | DCXR (UniProt Q7Z4W1) | 0.346 | -0.203 | 0.528
3 | DDA1 (UniProt Q9BW61) | 0.456 | -0.211 | 0.665
4 | DDAH1 (UniProt O94760) | 0.568 | 0.134 | 0.259
5 | DDAH2 (UniProt O95865) | 0.838 | 0.743 | 0.22
6 | DDB1 (UniProt Q16531) | -0.479 | -0.519 | -0.468
7 | DDB2 (UniProt Q92466) | -0.684 | -1.2 | 0.0883
8 | DDHD1 (UniProt Q8NEL9) | -0.143 | -0.142 | 0.0595
9 | DDHD2 (UniProt O94830) | 0.3 | -0.141 | -0.0424
10 | DDI2 (UniProt Q5TDH0) | -0.174 | -0.209 | -0.217
11 | DDOST (UniProt P39656) | -3.14 | -2.49 | 0.00935
12 | DDR2 (UniProt Q16832) | -0.251 | -0.189 | -0.163
13 | DDRGK1 (UniProt Q96HY6) | -1.17 | -0.728 | 0.397
14 | DDT (UniProt P30046) | -0.198 | 0.134 | 0.0872
15 | DDX1 (UniProt Q92499) | 0.085 | 0.274 | -0.304
16 | DDX3X (UniProt O00571) | -0.829 | -0.504 | -2.07
17 | DDX5 (UniProt P17844) | 0.954 | 1.43 | -1.9
18 | DDX6 (UniProt P26196) | 0.414 | 0.53 | 1.01
19 | DDX11 (UniProt Q96FC9) | -0.753 | -0.517 | 1.07
20 | DDX17 (UniProt Q92841) | 0.121 | 0.424 | -0.776
21 | DDX18 (UniProt Q9NVP1) | 0.301 | 0.0191 | -1.26
22 | DDX19A (UniProt Q9NUU7) | 0.865 | 1.2 | 0.954
23 | DDX20 (UniProt Q9UHI6) | -0.457 | -0.527 | -0.763
24 | DDX21 (UniProt Q9NR30) | 0.693 | 0.249 | -1.35

Row | Target | thermal stability z-score [1, 3] | thermal stability z-score ([1]; arsenate co-treatment: none) | thermal stability z-score [2]
25 | DDX23 (UniProt Q9BUQ8) | 0.326 | 0.137 | -0.836
26 | DDX24 (UniProt Q9GZR7) | 1.1 | 0.327 | -0.522
27 | DDX27 (UniProt Q96GQ7) | 0.47 | 0.52 | -0.231
28 | DDX28 (UniProt Q9NUL7) | -0.0583 | 0.0995 | 0.0334
29 | DDX31 (UniProt Q9H8H2) | 0.19 | 0.0101 | -0.348
30 | DDX39A (UniProt O00148) | -0.214 | 0.12 | 0.441
31 | DDX39B (UniProt Q13838) | 0.451 | 0.103 | 0.941
32 | DDX41 (UniProt Q9UJV9) | -0.196 | -0.0709 | -0.204
33 | DDX42 (UniProt Q86XP3) | 0.815 | 0.837 | 0.47
34 | DDX46 (UniProt Q7L014) | 0.411 | 0.501 | -1.2
35 | DDX47 (UniProt Q9H0S4) | 1.72 | 0.253 | 0.634
36 | DDX49 (UniProt Q9Y6V7) | -0.368 | -0.359 | -0.153
37 | DDX50 (UniProt Q9BQ39) | 0.262 | 0.192 | -0.49
38 | DDX54 (UniProt Q8TDD1) | -0.154 | -0.015 | -0.136
39 | DDX55 (UniProt Q8NHQ9) | 0.693 | 0.58 | 0.0246
40 | DDX56 (UniProt Q9NY93) | -0.847 | -0.217 | 0.917
41 | DDX59 (UniProt Q5T1V6) | -0.512 | -0.363 | -1.01
42 | DECR1 (UniProt Q16698) | -0.133 | 0.18 | -0.0171
43 | DECR2 (UniProt Q9NUI1) | 1.26 | 1.15 | 1.27
44 | DEGS1 (UniProt O15121) | -0.756 | -1.25 | 0.212
45 | DEK (UniProt P35659) | 0.116 | 0.695 | -0.316
46 | DENND1A (UniProt Q8TEH3) | -0.118 | -0.0262 | -0.185
47 | DENND4B (UniProt O75064) | 0.182 | -0.0196 | 0.288
48 | DENND4C (UniProt Q5VZ89) | 0.201 | 0.677 | 0.337

Row | Target | thermal stability z-score [1, 3] | thermal stability z-score ([1]; arsenate co-treatment: none) | thermal stability z-score [2]
49 | DENND5B (UniProt Q6ZUT9) | 0.0786 | 0.0385 | 0.148
50 | DENND6A (UniProt Q8IWF6) | -0.149 | -0.836 | -0.387
51 | DENR (UniProt O43583) | 0.109 | -0.188 | -0.702
52 | DEPDC7 (UniProt Q96QD5) | -0.328 | -0.237 | -0.221
53 | DERA (UniProt Q9Y315) | 0.0875 | -0.0376 | -0.0631
54 | DERL1 (UniProt Q9BUN8) | -0.177 | -0.185 | -0.00515
55 | DERL2 (UniProt Q9GZP9) | -0.00701 | -0.0318 | 0.0606
56 | DFFA (UniProt O00273) | 0.376 | 0.555 | 0.443
57 | DFNA5 (UniProt O60443) | 0.218 | 0.152 | 0.523
58 | DGAT1 (UniProt O75907) | -0.44 | -0.27 | -0.264
59 | DGCR14 (UniProt Q96DF8) | -0.552 | 0.06 | 0.724
60 | DHCR7 (UniProt Q9UBM7) | -0.283 | -0.384 | 0.411
61 | DHCR24 (UniProt Q15392) | 0.408 | 0.354 | 0.726
62 | DHDDS (UniProt Q86SQ9) | 1.01 | 0.391 | 0.205
63 | DHFR (UniProt P00374) | -0.995 | -0.563 | 0.324
64 | DHODH (UniProt Q02127) | 0.213 | 0.162 | -0.752
65 | DHPS (UniProt P49366) | 0.538 | 0.536 | 0.603
66 | DHRS1 (UniProt Q96LJ7) | -0.121 | 0.743 | 0.812
67 | DHRS3 (UniProt O75911) | -0.614 | -0.616 | -0.762
68 | DHRS4 (UniProt Q9BTZ2) | -0.194 | -0.173 | 0.0753
69 | DHRS7 (UniProt Q9Y394) | -0.365 | -0.498 | 0.437
70 | DHRS7B (UniProt Q6IAN0) | 0.315 | -0.159 | 0.0755
71 | DHRS11 (UniProt Q6UWP2) | 0.484 | 0.188 | 0.252
